Test results: US20100240589A1, “DIASTEREOMERIC PEPTIDES USEFUL AS INHIBITORS OF MEMBRANE PROTEIN ASSEMBLY” (YEDA RESEARCH AND DEVELOPMENT CO., LTD. AT THE WEIZMANN …, priority 2003, published 2010)
pIC50: −log10 of the molar value. Read-outs that look alike come from different tables or passages of the source. Ends that are not written are not given here.

Experiments:
[1] = tested on: activated T-cells; test: Binding of NBD-labeled fusion peptides to T-cells (confocal fluorescence microscopy); format: cell-based; set-up: dose or concentration left out as unconfirmed; settings: 30 minutes, room temperature
Protocol: Nitrobenzofurazane (NBD)-labeled wt-fusion peptide or NBD-labeled diastereomeric fusion peptide (herein designated IFFA) were studied for their binding to activated T-cells as follows: Activated T-cells (10,000/ml) were incubated for 30 minutes at room temperature with NBD labeled wt- or IFFA-fusion peptides (0.5 mM final concentration). The cells were washed twice with PBS (100 ml) in order to remove excess of unbound peptide. The cells were then observed under the fluorescent confocal microscope. NBD excitation was at 488 nm with the laser set at 2% power to prevent bleaching of the fluorophore. Fluorescence data was collected from 525 nm and up.

[2] = target: Tar-1 all-L NBD peptide (Escherichia coli, UniProt P07017); settings: donor Tar-1 all-L NBD peptide; acceptor-to-lipid ratio of 1:7500; PE/PG SUV
Protocol: To investigate the direct interaction between the two enantiomers of Tar-1 in an isolated in vitro system, fluorescence energy transfer (FRET) between fluorescently labeled Tar-1 wild-type peptide and its diastereomeric analog was measured. The assay was performed in a model lipid environment of small unilamellar vesicles (SUV) composed of negatively charged PE/PG lipids (7:3 w/w). This phospholipid composition is typical of the E. coli inner membrane. The Tar-1 peptides were labeled with NBD as the donor fluorophore or rhodamine-TAMRA as the acceptor fluorophore, and FRET was measured.

[3] = tested on: Tar-1 TM domain (ToxR-MalE chimera); settings: different concentrations of exogenous peptide, FIG. 9
From the text: The ToxR transcription activator can be used successfully to assess weak protein-protein interactions within the E. coli membrane. A Tar-1 TM domain encoding the DNA cassette was grafted between the ToxR transcription activator and the maltose binding protein in the ToxR-MalE plasmid. The plasmid was then transformed into E. coli FHK12 cells, which contain β-galactosidase, under the control of a ctx promoter. Dimerization of the TM domains, in this system, results in association and activation of the ToxR transcription activator, which then becomes active and is able to bind the ctx promoter. Quantification of the amount of homo-dimerization was done by measuring the activity of the β-galactosidase reporter gene and by normalizing it to the cell content (OD590) (miller units)
The ability of the Tar-1 peptides to disrupt the proper dimerization of the wild-type transmembrane (TM) domain was thus investigated by using the ToxR system. This TM assembly system can assess the dimerization of a specific TM domain grafted between the ToxR transcription activator and the maltose binding protein, MalE. […] The TM-TM interactions were monitored by measuring the activity of β-galactosidase in the presence of different concentrations of exogenous Tar-1 analog peptides.

[4] = tested on: CP362 containing pNT201
[5] = tested on: ToxR GPA construct in FHK12 bacteria; test: ToxR receptor expression levels (Western blot); format: cell-based; settings: anti maltose binding protein
Protocol: Bacteria FHK12 cells were grown in the presence or absence of 2D-GPA, 10 μl samples were added to 2× sample buffer and boiled for 5 minutes. The samples were separated on a 12% SDS-PAGE and thereafter were blotted. The primary antibody used was anti maltose binding protein. The detection was performed with Phototope-HRP Western Blot Detection System (Cell Signaling Technology, MA, USA).

[6] = tested on: fusion of HIV-1 gp120-41 expressing TF228 cells with CD4+CXCR4+3T3 mouse fibroblasts; test: Dye transfer fusion assay (cell-cell fusion); format: cell-based; settings: for inhibition compared with the wild-type peptide: dye transfer fusion assay; for inhibition of HIV-1 mediated cell-cell fusion: dye transfer, co-culture 2 hours at 37° C.
Protocol: Peptide inhibition of cell-cell fusion was assayed by monitoring the redistribution of two fluorescent probes: a water-soluble probe and a lipophilic probe, between target and effector cells upon their co-incubation with these probes (Munoz-Barroso I., et al., 1998, J. Cell Biol. 140: 315-323). The HIV-1 gp120-41 expressing TF228 cells (Jonak, Z. L., et al., 1993, AIDS Res. Hum. Retrovir. 9:23-32) were labeled with either calcein or a green fluorescent fatty acid as follows: HIV-1 gp120-41 expressing TF228 cells were incubated with 1 μM calcein for 60 minutes at 37° C., and then washed and resuspended at 10^5 cells/ml in RPMI medium. Alternatively, the HIV-1 gp120-41 expressing TF228 cells were labeled with the fatty acid 4,4-difluoro-5-methyl-4-bora-3a, 4a-diaza-s-indacene-3-dodecanoic acid (C1-BODIPY-C12; (Molecular Probes, Eugene, Oreg.)) as follows: HIV-1 gp120-41 expressing TF228 cells were seeded at 10^5 cells/ml in RPMI medium containing 10 mg/ml of the C1-BODIPY-C12 and grown for three days prior to the experiment. The fatty acid was eventually metabolized into phospholipid, primarily phosphatidylcholine. The cells where then washed and resuspended at 10^5 cells/ml. The target cells, CD4+CXCR4+3T3 mouse fibroblasts, were plated at 10^5 cells/ml the night before the experiment. The next day, the CD4+CXCR4+3T3 cells were labeled with 20 μM [5-(and -6) ((4-Chloromethyl)benzoyl)amino)) tetramethylrhodamine (CMTMR) for one hour at 37° C., washed several times and combined with the effector cells (1:3 target-effector cell ratio). Different concentrations of peptides, dissolved in PBS or Tris buffer, were then added. The cells were co-cultured for 2 hours at 37° C. in 12 well plates (Costar, Cambridge, Mass.). Phase and fluorescent images were collected using an Olympus IX70 coupled to a CCD camera (Princeton Instruments, Trenton, N.J.) with a 20× objective lens. An 82000 optical filter cube (Chroma Technology Corp., Brattleboro, Vt.) was used for the excitation of calcein (494/517), BODIPY (500/510), and CMTMR (541/565). Three images per well were collected and then analyzed using metamorph software (Universal Imaging, WestChester, Pa.) for dye transfer from the donor to the acceptor cell. The scoring of fusion events was conducted as described by Munoz-Barroso et al. (ibid.).

[7] = target: ToxR GPA (GPA transmembrane domain); test: ToxR GPA heterodimer formation (β-galactosidase reporter); format: cell-based
Protocol: The ToxR GPA plasmid construct is a simple and robust method for detecting homodimerization of transmembrane domains in vivo (Langosch, D., et al., 1996, J. Mol. Biol. 263: 525-530). The detection is done through the signal of a β-galactosidase reporter gene. Heterodimerization can be detected through addition of an exogenous peptide. […] The 2D-GPA peptide of SEQ ID NO:11 was exogenously added to the system in increasing doses (0.5-20 μM; FIG. 5). […] The inhibition was calculated as follows: I is the inhibitory ability of the peptide, Apeptide is the activity of ToxR-GPA in the presence of the peptide, Amax is the maximal activity of ToxR-GPA without peptide, and Abaseline is the baseline activity of the monomer A16 plasmid, a plasmid containing a peptide which consists of 16 amino acids all of which are alanine (Langosch, D., et al., 1996, J. Mol. Biol. 263: 525-530).
IC50 was calculated by fitting normalized data to the Langmuir equation (equation 3) in the Origin 6.0 commercial program.
Were A represents ToxR-GPA transcription factor, B represents the exogenous peptide, I represents inhibition of beta-galactosidase activity (1-activity) and K is a scaling constant.

[8] = tested on: HIV1 gp41 mediated viral fusion; settings: literature; cited from earlier work
[9] = target: T1, wt-GPA (Homo sapiens, UniProt P02724); test: FRET between wt-GPA and diastereomer in LUV; format: binding; settings: donor 0.1 μM, acceptor 0.01-0.05 μM, LUV 340 μM
T1 construct: ITLIIFGVMAGVIGT; fluorophore label (NBD); made in house; host or cells: chemical peptide synthesis
Protocol: Wild type (wt)-GPA and the 2D-GPA analog were synthetically labeled with Rhodamine and NBD, respectively, and fluorescent resonance energy transfer (FRET) experiments were performed with NBD-labeled peptides serving as energy donors and Rhodamine-labeled peptides serving as energy acceptors. […] In a typical experiment, a donor peptide (final concentration 0.1 μM) was added to a dispersion of large unilamellar vesicles (LUV; 340 μM) in PBS. This was followed by the addition of an acceptor peptide in increasing doses ranging from 0.01 to 0.05 μM. At this peptide to lipid ratios, complete membrane binding is expected for all the transmembrane peptides. […] The percentage of transfer efficiency (E), is given by:
The R0 for this pair of donor-acceptor fluorophores is around 51 Å.

[10] = tested on: FHK12 bacterial membrane; test: Binding of NBD labeled peptide to bacterial membrane (confocal); format: cell-based; settings: NBD labeled peptide 500 nM
Protocol: The binding of 2D-GPA to the membrane of the FHK12 bacteria is a prerequisite for the interaction between the peptide and the GPA ToxR construct. In order to verify this binding, the bacteria were observed under a confocal microscope in the absence or presence of a NBD labeled 2D-GPA peptide at a 500 nM concentration. Experiments were done as follows: FHK12 bacteria were diluted 1:10000 and incubated with NBD labeled 2D-GPA, final concentration of 500 nM, for 30 seconds. Samples were fixed with Glutaraldehyde at a final concentration of 0.001% for 30 seconds, centrifuged and washed 3 times with fresh PBS. Confocal images were obtained using an Olympus IX70 FV500 confocal laser-scanning microscope. […] The confocal images were obtained at 12-bit resolution.

[11] = target: wt-fusion peptide (N-terminal 33 segment of gp41) (Human immunodeficiency virus type 1 group M subtype B, UniProt P03377); settings: NBD-wt donor 0.05 μM, Rho acceptor 0.025-0.35 μM, SUV 400 μM
Protocol: The self-association of the peptides in their membrane-bound state was monitored by employing resonance energy transfer measurements. Fluorescence resonance energy transfer was measured using NBD-labeled peptides serving as donors and Rho (rhodamine)-labeled peptides serving as energy acceptors. Fluorescence spectra were obtained at room temperature with excitation set at 467 nm using a 10 nm slit width. In a typical experiment, donor peptide (final concentration 0.04 μM) was added to a dispersion of phosphatidylcholine/cholesterol (PC/Chol; 10:1 w/w) small unilamellar vesicles (SUV; 224 μM) in PBS, followed by the addition of acceptor peptide in several sequential doses. Fluorescence spectra were obtained before and after addition of the acceptor. The efficiency of energy transfer (E) was determined by measuring the decrease in the quantum yield of the donor as a result of the presence of acceptor. E was determined experimentally from the ratio of the fluorescence intensities of the donor in the presence (Ida) and in the absence (Id) of the acceptor, at the donor's maximum emission wavelength. The percentage of transfer efficiency (E), is given by:
The contribution of buffer and vesicles was subtracted from all measurements. […] The acceptor-peptide was added only after the donor-peptide was already bound to the membrane, thus decreasing association in solution. […]

Q: Which “binding to T-cells” value [1] does the source give for “AVGIGALFLGFLGAAGSTMGARSMTLTVQARQL [wt-fusion peptide]” here?
A: high affinity binding to T-cells

Q: Which results are given for “KKKMVLGVFALLQLISGSLKK (KKKMVLGVFALLQLISGSLKK-NH2; also: D-amino acids, which not given here) [Tar-1 diastereomer]”?
A: energy transfer [2]: about 30%; inhibition of Tar-1 TM domain dimerization (β-galactosidase activity) [3]: interfered with the proper dimerization

Q: With `O=C(N[C@H](CO)[C@H](O)c1ccc([N+](=O)[O-])cc1)C(Cl)Cl` [chloramphenicol] as the compound, how does the “cell density (growth) of the bacteria” value [4] read?
A: zero growth

Q: Which “effect on expression levels of the ToxR GPA construct” value [5] does the source give for “KKITLIIFGVMAGVIGT (also: D-amino acids, which not given here) [SEQ ID NO:12, another diastereomeric GPA peptide]” here?
A: did not affect the expression levels

Q: With D-L^669, W^670-DP178 [[D-LW]-DP178] as the compound, how does the “inhibition compared with the wild-type peptide” value [6] read?
A: more active than the wild-type DP178

Q: What about the “inhibition of HIV-1 mediated cell-cell fusion” value [6] of the same compound?
A: inhibited the fusion

Q: Which “inhibition of HIV-1 mediated cell-cell fusion” value [6] does the source give for “FFGAVIGTIALGVATSAQITAGIALAEAREAKR [fusion peptide of Sendai virus, reference compound]” here?
A: completely devoid of inhibitory activity

Q: For “KKKMVLGVFALLQLISGSLKK [Tar-1 all-L, reference compound]”, which “inhibition of Tar-1 TM domain dimerization (β-galactosidase activity)” value ([3]; listed as Tar-1 all-L peptide) is on record?
A: inhibition profile similar to its diastereomeric counterpart

Q: With “KKITLIIFGVMAGVIGT [all L GPA, reference compound]” as the compound, how does the pIC50 ([7]; previous all L and all D GPA results fitted to this model, read-out: IC50 of the interaction with the GPA transmembrane domain) read?
A: 6.44

Q: With enfuvirtide as the compound, how does the “inhibition of viral fusion” value [8] read?
A: competent inhibitors of viral fusion

Q: Which results are given for “ITLIIFGVMAGVIGT [2D-GPA, GPA transmembrane domain analog, L-valines at positions 80 and 84 replaced by their D-enantiomer]”?
A: effect on expression levels of the ToxR GPA construct [5]: no significant differences were detected; fluorescence energy transfer with wt-GPA [9]: fluorescence energy transfer increased; inhibition of ToxR GPA homodimer signal ([7]; exogenous peptide 0.5-20 μM): concentration dependent inhibitory effect; pIC50 ([7]; extrapolated from the fit to Langmuir equation, read-out: IC50 of the interaction with the integral GPA transmembrane domain): 6.54; localization in FHK12 bacteria [10]: localized in the bacterial membrane

Q: For D-S^649, Q^650-DP178 [[D-SQ]-DP178], which “inhibition of HIV-1 mediated cell-cell fusion” value [6] is on record?
A: completely inactive

Q: For AVGIGALFLGFLG [reference compound], which “inhibition of HIV-1 mediated cell-cell fusion” value [6] is on record?
A: completely devoid of inhibitory activity

Q: For “AVGIGALFLGFLGAAGSTMGARSMTLTVQARQL [IFFA]”, which “association with wt-fusion peptide (energy transfer)” value [11] is on record?
A: associate with the wt-fusion peptide

Q: And the “concentration showing significant inhibitory effect on cell-fusion” value ([6]; FIG. 2)?
A: 10 ng/mL

Q: And the “inhibition compared with the wild-type peptide” value [6]?
A: identical to that of the wild-type (wt) fusion peptide

Q: With “AVGIGALF [8-mer wild-type control peptide, reference compound]” as the compound, how does the “inhibition of HIV-1 mediated cell-cell fusion” value [6] read?
A: completely devoid of inhibitory effect
